Experimental data from patent US4387098A, “Imidazo[1,2-a]quinoline derivatives useful as anxiolytics” (Roussel Uclaf, priority 1981, dated 1983).

Experiments:
[1] = target: benzodiazepine receptor; test: benzodiazepine receptor affinity, [^3 H] flunitrazepam radio receptor binding (modified Squires and Braestrup) on rat forebrain membrane preparations; conditions: 0.6 nM [^3 H] flunitrazepam, read-out: IC50, inhibition of the specific binding of [^3 H] flunitrazepam by 50%
Procedure: A. The affinity of the compounds for the benzodiazepine receptor was assessed using the radioligand [^3 H] flunitrazepam and modifications of the original radio receptor binding method of Squires and Braestrup (Nature, 1977, Vol. 266, p. 732). The values of Table V are nanomolar concentrations of test compound which inhibited the specific binding of 0.6 nM[^3 H] flunitrazepam to rat forebrain membrane preparations by 50% (IC50 nM).

[2] = anxiolytic activity, one-day lick shock method of Vogel et al; format: in vivo; conditions: po, 24 h, orally, read-out: minimum effective dose (MED) at which there was an observed increase in shocks above control
Procedure: B. Screening for anxiolytic activity was carried out by the one-day lick shock method of Vogel et al [Psychopharmacologia, 1971 Vol. 21, p. 1]. The values of Table VI are the minimum effective doses (MED) in mg/kg orally at which there was an observed increase in shocks above control.

Structure (SMILES): CCCCc1ccc2c(c1)c(OC)cc1nc(C(=O)c3ccccc3)cn12 [Example 16]
- IC50 [1]: 57 nM
- minimal effective dose [2]: 25 mg/kg

Structure (SMILES): COc1cc2nc(C(=O)c3ccccc3)cn2c2ccc(C)cc12 [Example 13]
- IC50 [1]: 21 nM
- minimal effective dose [2]: 25 mg/kg

Structure (SMILES): COc1cc2nc(C(=O)c3ccccc3)cn2c2ccc(Cl)cc12 [Example 7]
- IC50 [1]: 600 nM

Structure (SMILES): CSc1cc2nc(C(=O)c3ccccc3)cn2c2ccccc12 [Example 2, (5-methylthio-imidazo[1,2-a]quinolin-2-yl)-phenyl-methanone]
- IC50 [1]: 500 nM

Structure (SMILES): COc1cc2nc(C(=O)c3ccc(Cl)cc3)cn2c2ccccc12 [Example 20]
- IC50 [1]: 96 nM

Structure (SMILES): COc1cc2nc(C(=O)c3ccccc3)cn2c2ccc(C(C)C)cc12 [Example 15]
- IC50 [1]: 25 nM
- minimal effective dose [2]: 10 mg/kg

Structure (SMILES): CCc1ccc2c(c1)c(OC)cc1nc(C(=O)c3ccc(OC)cc3)cn12 [Example 28]
- IC50 [1]: 30 nM

Structure (SMILES): COc1ccc(C(=O)c2cn3c(cc(OC)c4ccccc43)n2)cc1 [Example 18]
- IC50 [1]: 37 nM

Structure (SMILES): CCc1ccc2c(c1)c(OC)cc1nc(C(=O)c3ccccn3)cn12 [Example 30]
- IC50 [1]: 92 nM

Structure (SMILES): COc1ccc2c(c1)c(OC)cc1nc(C(=O)c3ccccc3)cn12 [Example 14]
- IC50 [1]: 51 nM

Structure (SMILES): CCc1ccc2c(c1)c(OC)cc1nc(C(=O)c3ccccc3)cn12 [Example 1]
- IC50 [1]: 14 nM
- minimal effective dose [2]: 20 mg/kg

Structure (SMILES): COc1cc2nc(C(=O)c3ccccc3)cn2c2cc(Cl)ccc12 [Example 22]
- IC50 [1]: 340 nM

Structure (SMILES): COc1ccc2c(OC)cc3nc(C(=O)c4ccccc4)cn3c2c1 [Example 3]
- IC50 [1]: 5000 nM

Structure (SMILES): CCc1ccc(C(=O)c2cn3c(cc(OC)c4cc(CC)ccc43)n2)cc1 [Example 29]
- IC50 [1]: 51 nM

Structure (SMILES): COc1cc2nc(C(=O)c3ccccc3)cn2c2c(Cl)cccc12 [Example 23]
- IC50 [1]: 132 nM

Structure (SMILES): COc1cc2nc(C(=O)c3ccccc3)cn2c2cccc(C)c12 [Example 25]
- IC50 [1]: 11 nM

Structure (SMILES): COc1cc2nc(C(=O)c3ccccc3)cn2c2ccccc12 [Example 4, (5-methoxy-imidazo[1,2-a]quinolin-2-yl)-phenyl-methanone]
- IC50 [1]: 27 nM
- minimal effective dose [2]: 25 mg/kg

Structure (SMILES): CC(C)Oc1cc2nc(C(=O)c3ccccc3)cn2c2ccccc12 [Example 8, (5-isopropoxy-imidazo[1,2-a]quinolin-2-yl)-phenyl-methanone]
- IC50 [1]: 470 nM

Structure (SMILES): CCCOc1cc2nc(C(=O)c3ccccc3)cn2c2ccccc12 [Example 12]
- IC50 [1]: 1000 nM

Structure (SMILES): COc1cc2nc(C(=O)c3ccccc3)cn2c2ccc(C3CCCCC3)cc12 [Example 26]
- IC50 [1]: 10000 nM

Structure (SMILES): CCCCOc1cc2nc(C(=O)c3ccccc3)cn2c2ccccc12 [Example 10]
- IC50 [1]: 1000 nM

Structure (SMILES): COc1cc2nc(C(=O)c3ccccc3)cn2c2cc(C)ccc12 [Example 24]
- IC50 [1]: 290 nM

Structure (SMILES): COc1cc2nc(C(=O)c3ccccc3)cn2c2ccc(F)cc12 [Example 31]
- IC50 [1]: 74 nM

Structure (SMILES): COc1cc2nc(C(=O)c3cccs3)cn2c2ccccc12 [Example 21]
- IC50 [1]: 24 nM

Structure (SMILES): COc1cc2nc(C(=O)c3ccccc3)cn2c2c(OC)cccc12 [Example 19]
- IC50 [1]: 630 nM

Structure (SMILES): CCOc1cc2nc(C(=O)c3ccccc3)cn2c2ccccc12 [Example 9]
- IC50 [1]: 540 nM

Structure (SMILES): CCc1ccc(C(=O)c2cn3c(cc(OC)c4ccccc43)n2)cc1 [Example 11, (4-ethyl-phenyl)(5-methoxy-imidazo[1,2-a]quinolin-2-yl)-methanone]
- IC50 [1]: 67 nM

Structure (SMILES): COc1cc2nc(C(=O)c3ccc(C)cc3)cn2c2ccccc12 [Example 17]
- IC50 [1]: 19 nM

Structure (SMILES): CCc1ccc2c(c1)c(OC)cc1nc(C(C)=O)cn12 [Example 6]
- IC50 [1]: 1300 nM
- minimal effective dose [2]: 20 mg/kg

Structure (SMILES): COc1cc2nc(C(=O)c3ccccc3)cn2c2ccc(Oc3ccccc3)cc12 [Example 27]
- IC50 [1]: 210 nM
